# Measurements reported in US20240398899A1 (priority 2021, published 2024).
# How the values were obtained:
# SH-SY5Y neuronal cells [1] = test: Cytoprotective effect against MPP+ iodide induced damage, MTT assay; settings: MPP+ iodide 1 mM
# Experimental: The Human Neuronal SH-SY5Y Cells were counted using hemocytometer and plated in 96 well plate at a density of 25,000 cells/well and incubated at 37° C. for 24 h. After incubation, cells were treated with recombinant lectin protein having the sequence of SEQ ID NO: 1 at concentrations ranging from 0.001 μg/ml 50 μg/ml for 24 h. After 24 h of treatment, cells were exposed to neurotoxin (MPP+ iodide, 1 mM) for 24 h. Cells treated with MPP+ iodide alone were included as negative control. Untreated cells were included as control. […] After treatment, the cytoprotective effect of SEQ ID NO: 1 on cell viability was assessed by 3-(4,5-dimethythiazol-2-yl)-2,5-diphenyl tetrazolium bromide (MTT) assay: The plate was taken out and 20 μl of 5 mg/ml of MTT 3-(4,5-dimethythiazol-2-yl)-2,5-diphenyl tetrazolium bromide solution was added to all the wells. The SH-SY5Y cells were incubated for 3 h at 37° C. The supernatant was aspirated and 150 μl of DMSO was added to each well to dissolve formazan crystals. The absorbance of each well was read at 540 nm using Synergy HT micro plate reader. The protective effect of the SEQ ID NO: 1 on survival of SH-SY5Y cells against MPP+ iodide induced damage was determined as: The viability of cells was determined as:
# Where, the percentage cytotoxicity corresponding to each treatment was calculated as follows:
# [formula] • X=Absorbance of cells treated with MPP+ iodide/recombinant lectin having SEQ ID NO: 1+MPP+Iodide • R=Absorbance of Control cells (Untreated) • Percentage protection was calculated as:
# [(Absorbance of SEQ ID NO:1+MPP+Iodide)−(Absorbance of MPP+Iodide)/(Absorbance of Untreated)−(Absorbance of MPP+Iodide alone)]*100
# SH-SY5Y neuronal cells [2] = test: Annexin-V staining of apoptotic cells against MPP+ iodide damage; format: cell-based, human; settings: MPP+ iodide 1 mM; for % Decrease in Apoptotic cells (wrt MPP + iodide): Annexin
# Experimental: After 24 h of treatment, cells were exposed to damage (MPP+ iodide 1 mM) for 24 h. […] Untreated cells were included as control. Cells treated with Deprenyl served as positive control. After treatment, cells were harvested by trypsinization and processed for Annexin V assay as follows: Cell were gently harvested into pre-labeled sterile centrifuge tubes and centrifuged at 300×g for 5-7 min. After 24 h of treatment, cells were exposed to damage (MPP+ iodide 1 mM) for 24 h. Cells treated with MPP+ iodide alone were included as Control. Untreated cells were included as negative control. Cells treated with Deprenyl served as positive control. After treatment, cells were harvested by trypsinization and processed for Annexin V assay as follows: Cell were gently harvested into pre-labelled sterile centrifuge tubes and centrifuged at 300×g for 5-7 min. Supernatant were discarded and the pellet was resuspended in 200 μl of fresh culture medium. 100 μl of cell suspension was transferred into pre-labeled sterile centrifuge tubes. 100 μl of Annexin-V reagent was added to each tube and incubated for 30 min at RT in dark. Cells stained for Annexin-V were then transferred into 96-well plates and acquired on flow cytometer (Guava technologies). Percentage of Annexin-V positive cells was determined.
# Percent inhibition in apoptotic cells=[(% Annexin positive cells in MPP+iodide alone)−(% Annexin positive cells in Recombinant Lectin having SEQ ID NO:1+MPP+iodide)/% Annexin positive cells in MPP+iodide alone]*100
# SH-SY5Y neuronal cells [3] = test: Sub (G0/G1) cell population by PI cell cycle assay against MPP+ iodide damage; format: cell-based, human; settings: MPP + Iodide (2 mM); for % Decrease in Apoptotic cells (wrt MPP + iodide): SubG0/G1
# Experimental: After incubation as in Example 2a and 2b, cells were harvested by trypsinization and processed for Cell cycle assay as follows: Cell cycle reagent contains PI stain, which stains DNA of cells in different phases of cell cycle; Sub (G0/G1), G1, S, G2 and M. Cells in Sub (G0/G1) phase correspond to apoptotic cells.
# Cells were gently harvested into pre-labelled centrifuge tubes and centrifuged at 450 g for 5 min, RT (low brake). The supernatants were removed carefully and discarded. 1 ml of 1×PBS was added to the pellet and resuspended gently to make homogenous suspension. Cells were centrifuged at 450 g for 5 min, RT (low brake). The supernatant was carefully removed leaving behind approximately 100 μl of PBS. Cells were resuspended gently yet thoroughly in residual PBS. The cells were fixed by adding Ice-cold 70% ethanol (100 μl) added dropwise into cells in each tube while vortexing at low speed Cells were stored at 4° C. for 24 h prior to staining.
# Ethanol fixed cells were centrifuged at 450 g for 5 min, RT (low brake) the supernatant was carefully removed (not to touch the pellet) and discarded. 1 ml of 1×PBS was added into pellet and resuspended gently. Cells were incubated for 1 minute at RT. Cells were centrifuged at 450 g for 5 min, RT (low brake). (washing step) The supernatant was removed carefully leaving behind approx. 20 μl-50 μl of PBS. 200 μl of Cell Cycle reagent was added into each tube. Cells were resuspended gently and mixed. Cells were incubated for 30 min, RT, Dark. The stained samples were transferred into 96-well plates and acquired on flow cytometer (Guava technologies). Percentage of cells in Sub (G0/G1) phase were determined.
# Percent inhibition in apoptotic cells=[(% Sub(G0/G1)cells in MPP+iodide alone) −(% Sub(G0/G1)cells in SEQ ID NO:1+MPP+iodide)/% Sub(G0/G1)cells in MPP+iodide alone]*100
structure (smiles),measurement,setting,value
"C#CCN(C)[C@H](C)Cc1ccccc1 [Deprenyl, reference compound]",Percentage Protection,SH-SY5Y neuronal cells [1]; 1 μM,41.5%
same,Percentage Protection,SH-SY5Y neuronal cells [1]; 10 μM,49%
same,Percentage Protection,SH-SY5Y neuronal cells [1]; 25 μM,75.6%
same,Percentage Protection,SH-SY5Y neuronal cells [1]; 50 μM,74.7%
same,Percentage Protection,SH-SY5Y neuronal cells [1]; 100 μM,67.5%
same,% Apoptotic cells (Anenxin + ve),SH-SY5Y neuronal cells [2]; 10 μM,3%
same,% Decrease in Apoptotic cells (wrt MPP + iodide),SH-SY5Y neuronal cells [2]; 10 μM,27.2%
same,% Apoptotic cells (Anenxin + ve),SH-SY5Y neuronal cells [2]; 25 μM,2.5%
same,% Decrease in Apoptotic cells (wrt MPP + iodide),SH-SY5Y neuronal cells [2]; 25 μM,38.3%
same,% Apoptotic cells (Anenxin + ve),SH-SY5Y neuronal cells [2]; 100 μM,2.9%
same,% Decrease in Apoptotic cells (wrt MPP + iodide),SH-SY5Y neuronal cells [2]; 100 μM,28.4%
same,% Apoptotic cells (SubG0/G1),SH-SY5Y neuronal cells [3]; 10 μM,2.9%
same,% Decrease in Apoptotic cells (wrt MPP + iodide),SH-SY5Y neuronal cells [3]; 10 μM,12.8%
same,% Apoptotic cells (SubG0/G1),SH-SY5Y neuronal cells [3]; 25 μM,2.4%
same,% Decrease in Apoptotic cells (wrt MPP + iodide),SH-SY5Y neuronal cells [3]; 25 μM,28.3%
same,% Apoptotic cells (SubG0/G1),SH-SY5Y neuronal cells [3]; 100 μM,2%
same,% Decrease in Apoptotic cells (wrt MPP + iodide),SH-SY5Y neuronal cells [3]; 100 μM,42%
